Test results from patent publication US20220162215A1, “COMPOSITIONS AND METHODS OF USING THE SAME FOR TREATMENT OF NEURODEGENERATIVE AND MITOCHONDRIAL DISEASE” (MITOKININ, INC., priority 2019, published 2022).

Legend:
HeLa MKYP cells [1] = test: Human mitophagy assay (HeLa MKYP, mtKeima FACS, FCCP/oligomycin); format: cell-based; details: for Potency at 1 μM F/O toxin: Table 1; for Potency at 1 μM F/O toxin / activation at 6.3 µM: % activation of mitophagy at 6.3 μM treatment of the compound; for activation at 1.6 µM / activation at 6.3 µM: Homo sapiens, HeLa, 6 h, read-out: Potency at 1 μM F/O toxin*; for activation at 1.6 µM / Potency at 1 μM F/O toxin*: Table 2, % activation of mitophagy at 1.6 μM treatment of the compound; for activation at 6.3 µM: Table 3
Description: Briefly, HeLa MKYP cells were plated at 10,000 cells/well in 96 well plates along with compounds at various concentrations. Following 16 hrs of incubation, cells were treated with 1 uM FCCP/oligomycin for 6 hours, then analyzed via FACS for the presence of mitochondria in lysosomes (as determined by an emissions spectrum shift from the pH-sensitive mtKeima tag). Examples are shown in FIG. 1 through FIG. 13 below.

HeLa MKYP cells [2] = test: Toxicity / cell death measured by DAPI staining (take-up); format: cell-based; details: 50 μM; for Toxicity (% positive for DAPI take-up @ 50 μM): Table 1
Description: H2O2 treatment was performed as a control for cell death as measured by DAPI staining.
Briefly, HeLa MKYP cells were plated at 10,000 cells/well in 96 well plates along with compounds at various concentrations. Following 16 hrs of incubation, cells were treated with 1 uM FCCP/oligomycin for 6 hours, then analyzed via FACS for the presence of mitochondria in lysosomes (as determined by an emissions spectrum shift from the pH-sensitive mtKeima tag).

| Compound | Potency at 1 μM F/O toxin (HeLa MKYP cells [1]) | Toxicity (% positive for DAPI take-up @ 50 μM) (HeLa MKYP cells [2]) | activation at 1.6 µM (HeLa MKYP cells [1]) | Toxicity (% positive for DAPI takeup @ 50 μM) (HeLa MKYP cells [2]; Table 2) | also measured |
| --- | --- | --- | --- | --- | --- |
| CCCCNc1ncnc2[nH]c(C(F)(F)F)cc12 [Compound 1] | 42.3% | 4.6% | – | – | – |
| CCCCNc1ncnc2[nH]c(-c3ccnn3C)cc12 [Compound 2] | 15.0% | 94.6% | – | – | – |
| CCCCNc1ncnc2[nH]c(C(OCC)C(F)(F)F)cc12 (centres unmarked) [Compound 3] | 25.9% | 15.8% | – | – | – |
| CCCCNc1ncnc2[nH]c(CC(F)(F)F)cc12 [Compound 4] | 13.9% | 24.8% | – | – | – |
| CCCCNc1ncnc2[nH]c(C(OCC)C(F)(F)F)cc12 (centres unmarked) [Compound 5] | 17.9% | 47.4% | – | – | – |
| CCCCNc1ncnc2[nH]c(-c3ccccc3)cc12 [Compound 6] | 52.0% | 90.0% | – | – | – |
| CCCCNc1ncnc2[nH]c(CC)cc12 [Compound 7] | 14.0% | 93.4% | – | – | – |
| CCCCNc1ncnc2[nH]c(C)cc12 [Compound 8] | 43.4% | 15.4% | – | – | – |
| FC(F)(F)c1cc2c(NCc3ccccc3)ncnc2[nH]1 [Compound 9] | – | – | 35.1% | 50.4% | – |
| CC(C)(Nc1ncnc2[nH]c(C(F)(F)F)cc12)c1ccccc1 [Compound 10] | – | – | 17% | 5.6% | – |
| FC(F)(F)c1cc2c(NC3(c4ccccc4)CC3)ncnc2[nH]1 [Compound 11] | – | – | 20.8% | 80.5% | – |
| CC(Nc1ncnc2[nH]c(C(F)(F)F)cc12)c1ccccc1 (centres unmarked) [Compound 12] | – | – | 88.4% | 2.4% | – |
| FC(F)(F)c1cc2c(NC3COc4ccccc43)ncnc2[nH]1 (centres unmarked) [Compound 13] | – | – | 52.5% | 39.7% | – |
| COc1ccc2c(c1)CCCC2Nc1ncnc2[nH]c(C(F)(F)F)cc12 (centres unmarked) [Compound 14] | – | – | 29.8% | 95.5% | – |
| FC(F)(F)c1cc2c(NC3CCCc4ccccc43)ncnc2[nH]1 (centres unmarked) [Compound 16] | – | – | – | 4.5% | Potency at 1 μM F/O toxin* (HeLa MKYP cells [1]): 10.1% |
| FC(F)(F)c1cc2c(NC3CCc4ccccc43)ncnc2[nH]1 (centres unmarked) [Compound 17] | – | – | 14.8% | 2.3% | – |
| FC(F)(F)c1cc2c(NC3CCc4ccccc43)ncnc2[nH]1 (centres unmarked) [Compound 18] | – | – | – | 1.7% | Potency at 1 μM F/O toxin* (HeLa MKYP cells [1]): 14.3% |
| FC(F)(F)c1cc2c(NCc3cncnc3)ncnc2[nH]1 [Compound 19] | – | – | – | – | activation at 6.3 µM (HeLa MKYP cells [1]): 50.3%; Toxicity (% positive for DAPI takeup @ 50 μM) (HeLa MKYP cells [2]; human): 1.7% |
| FC(F)(F)c1cc2c(NCc3ccncn3)ncnc2[nH]1 [Compound 20] | – | – | – | – | activation at 6.3 µM (HeLa MKYP cells [1]): 7.9%; Toxicity (% positive for DAPI takeup @ 50 μM) (HeLa MKYP cells [2]; Table 3): 1.5% |
| FC(F)(F)c1cc2c(NCc3cnccn3)ncnc2[nH]1 [Compound 21] | – | – | – | – | activation at 6.3 µM (HeLa MKYP cells [1]): 9.1%; Toxicity (% positive for DAPI takeup @ 50 μM) (HeLa MKYP cells [2]; Table 3): 0.9% |
| COc1ncccc1CNc1ncnc2[nH]c(C(F)(F)F)cc12 [Compound 22] | – | – | – | – | activation at 6.3 µM (HeLa MKYP cells [1]): 18.5%; Toxicity (% positive for DAPI takeup @ 50 μM) (HeLa MKYP cells [2]; Table 3): 7.6% |
| Fc1cccc(CNc2ncnc3[nH]c(C(F)(F)F)cc23)c1Cl [Compound 23] | – | – | – | – | activation at 6.3 µM (HeLa MKYP cells [1]): 87.7%; Toxicity (% positive for DAPI takeup @ 50 μM) (HeLa MKYP cells [2]; Table 3): 4.5% |
